Square brackets hold non-standard residues; d marks the D form. Peptide text beside a SMILES is read from it. Phe(ol) = N[C@H](CO)Cc1ccccc1; Aib = CC(C)(N)C(=O)O

Two compounds from patent US20220195481A1, “MITOCHONDRIAL RESPIROMETRY IN FROZEN SPECIMENS” (The Regents of the University of Califormia, priority 2019, published 2022) can be followed below.

One test concerns SH-SY5Y cells. Briefly: Respirometry (oxygen consumption rate, Seahorse XF96) in frozen SH-SY5Y cells. The test is classed as cell-based, human. Particulars: MAS supplemented with 10 μg/mL Alamethicin and 100 μg/mL cytochrome c vs MAS alone; FIG. 8. Here is the method:
(§1) All procedures are performed at 4° C. All equipment, solutions, and consumables are pre-chilled. • 1. Re-suspend sample in 20 μL MAS buffer. Load 5 technical replicates of each condition. Leave at least 4 empty wells to determine background signal. • 2. To adhere mitochondrial particles to the bottom of the plate, centrifuge the loaded plate at 2,000×g for 5 min at 4° C. using plate carrier rotating buckets. […] After centrifugation, adjust the total volume of the wells to 150 uL by adding 130 uL MAS assay buffer per well. Supplement MAS buffer with 1-200 μg/mL cytochrome c and 1-500 μg/mL Alamethicin if maximal respiration is not reached on MAS alone. To avoid disrupting mitochondrial adherence to the bottom of the plate, add MAS using multichannel pipette pointed at a 45° angle to the top of well chamber, as instructed by the manufacturer. • 4. Incubate the plate at 37° C. in a non-CO2 incubator for 5 minutes. • 5. Insert plate into XF96 and begin assay protocol. Measure oxygen consumption rate (OCR) before and after every injection. Mix, wait, and measure times can vary between 1-7 minutes and 1-5 repetitions.
1. SH-SY5Y cells were cultured according to ATCC instructions. 2. When the cells reached 80% confluency, they were trypsinized, counted, spun down, washed in PBS, and frozen. 3. Cells were thawed on ice and re-suspended in MAS. 4. […]

Test [1] has as its system frozen murine liver tissue homogenate. The experiment in a line: Respirometry (oxygen consumption rate, Seahorse XF96) in frozen murine liver homogenate. Particulars: MAS supplemented with 100 μg/mL cytochrome c vs MAS alone; NADH and TMPD/Ascorbate injections; FIG. 3. The protocol:
as §1
1. Homogenate was prepared from previously frozen murine liver tissue in MAS using glass/Teflon dounce homogenizer. The preparation was centrifuged at 1,000×g for 5 minutes at 4° C. and the supernatant transferred to a new tube. 2. […]

For the compound `CC(=O)NC(C)(C)C(=O)N1CCC[C@H]1C(=O)NC(C)(C)C(=O)N[C@@H](C)C(=O)NC(C)(C)C(=O)N[C@@H](C)C(=O)N[C@@H](CCC(N)=O)C(=O)NC(C)(C)C(=O)N[C@H](C(=O)NC(C)(C)C(=O)NCC(=O)N[C@@H](CC(C)C)C(=O)NC(C)(C)C(=O)N1CCC[C@H]1C(=O)N[C@H](C(=O)NC(C)(C)C(=O)NC(C)(C)C(=O)N[C@@H](CCC(=O)O)C(=O)N[C@@H](CCC(N)=O)C(=O)N[C@H](CO)Cc1ccccc1)C(C)C)C(C)C` [Alamethicin] (Ac-[Aib]P[Aib]A[Aib]AQ[Aib]V[Aib]GL[Aib]PV[Aib][Aib]EQ[Phe(ol)]), in the test on SH-SY5Y cells, the “respiration in frozen cultured human bone marrow neuroblastoma cell line” value is reported as “Enhances Respiration”.

For cytochrome c, the “respiration in frozen tissue homogenates” value in test [1] is listed as “enhances respiration”.
